Experimental data published in patent publication US12508300B2, “Acylated GLP-1 derivative” (Sciwind Biosciences Co., Ltd., priority 2019, dated 2025).
Like-named read-outs stand apart in the source and are kept apart here. *1 amine or outer side, *2 acyl side, *3 side chain or, on linkers, in order; H or OH if unused. Where a SMILES comes first, the peptide text is derived from it. Where no end group is shown, it is not given here. Side-chain parts run from the residue outwards. The star is where a group is joined. C18 diacid = O=C(O)CCCCCCCCCCCCCCCCC(=O)*; γGlu = O=C(O)[C@H](CCC(=O)[*:2])N[*:1]; AEEA = NCCOCCOCC(=O)O

Tests used:
Format in all cases: in vivo
[1] = tested on: db/db mice; assay: Fasting blood glucose after single injection in type II diabetic db/db mice (FIG. 1); settings: 0.05 mg/kg s.c. single, day 4 and day 5
Description: The dosage is 0.05 mg/kg for each, and the administration time is set as 0 h. Fasting blood glucose is measured after fasting for 6-8 h every day, and the fasting blood glucose after administration is measured every day until the fasting blood glucose value of each animal of the test group recovers to the value measured before administration. The blood glucose value measured before administration is called the basal blood glucose value, and is set as 0. Change of the fasting blood glucose (Δ: delta)=Blood glucose value after administration-Basal blood glucose value before administration.

[2] = tested on: CD-1 mice; settings: 0.15 mg/kg s.c.
Description: Twenty-eight healthy female CD-1 mice aged 4-6 weeks are selected and divided into 4 groups, and they are injected subcutaneously with M4, M5, M7 and M0 at a dose of 0.15 mg/kg body weight.

[3] = tested on: ICR mice; design: G-AUC: unit not given here
Description: 20% glucose is intragastrically administered every day according to the time schedule of 4 h, 1 d, 2 d, 3 d, 4 d, and 5 d, at a dose of 2 g/kg body weight, and fasting for 6 hours before administering the glucose; and blood is respectively collected from the tip of the tail at 0 h, 0.5 h, 1 h and 2 h after giving the 20% glucose, then measuring the blood glucose value in real time by using Roche blood glucose test paper.

[4] = tested on: db/db mice; assay: Glucose-lowing effect of different doses in type II diabetic db/db mice (fasting, random blood glucose, OGTT G-AUC); settings: for Average changes of the blood glucose area under the curve after administration: OGTT
Description: The administration time is set as 0 h, and the fasting blood glucose and OGTT (oral glucose tolerance assay) are determined after fasting for 7-8 h every day, then 10% glucose is intragastrically administered at 1 g/kg body weight, and then blood is collected from the tip of the tail to measure the blood glucose in real time at 0, 0.5, 1, and 2 h after glucose load. After administration, the blood glucose is measured every day before fasting as random blood glucose, until the fasting blood glucose value of each animal of the test group recovers to the value before administration. All of the basal blood glucose value, random blood glucose value, and the blood glucose area under the curve (G-AUC) value determined before administration are bases for evaluating the efficacy of the medicament, and they are set as 0.
Change of the blood glucose (Δ: delta)=Blood glucose value after administration-Basal blood glucose value before administration.
Change of the blood glucose area under the curve (Δ: delta)=blood glucose area under the curve after administration-blood glucose area under the curve before administration.

CC[C@H](C)[C@H](NC(=O)[C@H](Cc1ccccc1)NC(=O)[C@H](CCC(=O)O)NC(=O)[C@H](CCCNC(=N)N)NC(=O)[C@H](C)NC(=O)[C@H](C)NC(=O)[C@H](CCC(N)=O)NC(=O)[C@H](CCC(=O)O)NC(=O)[C@H](CCC(=O)O)NC(=O)[C@H](CC(C)C)NC(=O)[C@H](Cc1ccc(O)cc1)NC(=O)[C@H](CO)NC(=O)[C@H](CO)NC(=O)[C@@H](NC(=O)[C@H](CC(=O)O)NC(=O)[C@H](CO)NC(=O)[C@@H](NC(=O)[C@H](Cc1ccccc1)NC(=O)[C@@H](NC(=O)CNC(=O)[C@H](CCC(=O)O)NC(=O)[C@@H](NC(=O)[C@@H](N)Cc1c[nH]cn1)[C@@H](C)O)[C@@H](C)O)[C@@H](C)O)C(C)C)C(=O)N[C@@H](CCCCNC(=O)COCCOCCNC(=O)COCCOCCNC(=O)CC[C@H](NC(=O)CCCCCCCCCCCCCCCCC(=O)O)C(=O)O)C(=O)N[C@@H](Cc1c[nH]c2ccccc12)C(=O)N[C@@H](CC(C)C)C(=O)N[C@H](C(=O)N[C@@H](CCCNC(=N)N)C(=O)NCC(=O)N[C@@H](CCCNC(=N)N)C(=O)NCC(=O)O)C(C)C [M13] (H-HTEGTFTSDVSSYLEEQAAREFIK([AEEA-AEEA-γGlu-C18 diacid])WLVRGRG-OH; N-terminus and C-terminus assumed)
glucose-lowing effect compared with Semaglutide (FIG. 1) [1]: better than that of Semaglutide

N-ε^26-[2-(2-[2-(2-[2-(2[4-(17-carboxyheptadecanoylamino)-4(s)-carboxybutyrylamino]ethoxy)ethoxy]acetylamino)ethoxy]ethoxy)acetyl]Val^8Glu^22Lys^26Arg^34-GLP-1(7-37) peptide (HVEGTFTSDVSSYLEEQAAK([AEEA-AEEA-γGlu-C18 diacid])EFIAWLVRGRG) [M0, Lys at position 26, disclosed in CN107033234A]
duration of glucose-lowing effect in normal mice ([2]; from Table 4): about 3 days
Inhibition rate (blood glucose) ([2]; Table 4, CD-1 mice, 6 h): 38.47%
Inhibition rate (blood glucose) ([2]; Table 4, CD-1 mice, 30 h): 33.79%
Inhibition rate (blood glucose) ([2]; Table 4, CD-1 mice, 54 h): 25.18%
Inhibition rate (blood glucose) ([2]; Table 4, CD-1 mice, 78 h): 13.43%
Inhibition rate (blood glucose) ([2]; Table 4, CD-1 mice, 102 h): −1.05%
Inhibition rate (blood glucose) ([2]; Table 5 (second experiment), CD-1 mice, 6 h): 26.71%
Inhibition rate (blood glucose) ([2]; Table 5 (second experiment), CD-1 mice, 30 h): 33.57%
Inhibition rate (blood glucose) ([2]; Table 5 (second experiment), CD-1 mice, 54 h): 17.32%
Inhibition rate (blood glucose) ([2]; Table 5 (second experiment), CD-1 mice, 78 h): 8.97%
Inhibition rate (blood glucose) ([2]; Table 5 (second experiment), CD-1 mice, 102 h): −12.89%
G-AUC ([3]; 0 h (before administration)): 18.0 ± 1.9
time the glucose-lowing effect is maintained ([3]; 0.15 mg/kg s.c. single): 3 days
G-AUC ([3]; 0.15 mg/kg s.c. single, 4 h): 11.1 ± 1.2
Inhibition rate (blood glucose) ([3]; 0.15 mg/kg s.c. single, 4 h): 38.47%
G-AUC ([3]; 0.15 mg/kg s.c. single, 1 d): 11.9 ± 0.7
Inhibition rate (blood glucose) ([3]; 0.15 mg/kg s.c. single, 1 d): 33.79%
G-AUC ([3]; 0.15 mg/kg s.c. single, 2 d): 13.5 ± 1.1
Inhibition rate (blood glucose) ([3]; 0.15 mg/kg s.c. single, 2 d): 25.18%
G-AUC ([3]; 0.15 mg/kg s.c. single, 3 d): 15.6 ± 1.3
Inhibition rate (blood glucose) ([3]; 0.15 mg/kg s.c. single, 3 d): 13.43%
G-AUC ([3]; 0.15 mg/kg s.c. single, 4 d): 18.2 ± 1.1
Inhibition rate (blood glucose) ([3]; 0.15 mg/kg s.c. single, 4 d): 0.60%
time after administration at which G-AUC returns to the base before administration ([4]; 0.015 mg/kg dosage group): 27 h
time after administration at which fasting blood glucose returns to the basal blood glucose base ([4]; 0.015 mg/kg dosage group): 51 h
time after administration at which random blood glucose returns to the base before administration ([4]; 0.015 mg/kg dosage group): 67 h
Average changes of fasting blood glucose after administration ([4]; 0.015 mg/kg s.c., 3 h): -3.5 mM
Average changes of random blood glucose after administration ([4]; 0.015 mg/kg s.c., 6 h): -15.7 mM
Average changes of random blood glucose after administration ([4]; 0.015 mg/kg s.c., 19 h): -13.5 mM
Average changes of fasting blood glucose after administration ([4]; 0.015 mg/kg s.c., 27 h): -2.7 mM
Average changes of random blood glucose after administration ([4]; 0.015 mg/kg s.c., 43 h): -10.1 mM
Average changes of fasting blood glucose after administration ([4]; 0.015 mg/kg s.c., 51 h): -2.4 mM
Average changes of random blood glucose after administration ([4]; 0.015 mg/kg s.c., 67 h): -3.1 mM
Average changes of fasting blood glucose after administration ([4]; 0.015 mg/kg s.c., 75 h): 2.5 mM
Average changes of random blood glucose after administration ([4]; 0.015 mg/kg s.c., 91 h): -0.1 mM
Average changes of fasting blood glucose after administration ([4]; 0.015 mg/kg s.c., 99 h): 3.9 mM
Average changes of random blood glucose after administration ([4]; 0.015 mg/kg s.c., 115 h): 4.9 mM
Average changes of fasting blood glucose after administration ([4]; 0.015 mg/kg s.c., 123 h): 3.7 mM
Average changes of random blood glucose after administration ([4]; 0.015 mg/kg s.c., 139 h): 5.9 mM
Average changes of fasting blood glucose after administration ([4]; 0.015 mg/kg s.c., 147 h): 9.8 mM
time after administration at which G-AUC returns to the base before administration ([4]; 0.15 mg/kg dosage group): 51 h
time after administration at which fasting blood glucose returns to the basal blood glucose base ([4]; 0.15 mg/kg dosage group): 75 h
time after administration at which random blood glucose returns to the base before administration ([4]; 0.15 mg/kg dosage group): 67 h
Average changes of fasting blood glucose after administration ([4]; 0.15 mg/kg s.c., 3 h): -4.1 mM
Average changes of random blood glucose after administration ([4]; 0.15 mg/kg s.c., 6 h): -15.7 mM
Average changes of random blood glucose after administration ([4]; 0.15 mg/kg s.c., 19 h): -14.8 mM
Average changes of fasting blood glucose after administration ([4]; 0.15 mg/kg s.c., 27 h): -3.0 mM
Average changes of random blood glucose after administration ([4]; 0.15 mg/kg s.c., 43 h): -14.1 mM
Average changes of fasting blood glucose after administration ([4]; 0.15 mg/kg s.c., 51 h): -3.2 mM
Average changes of random blood glucose after administration ([4]; 0.15 mg/kg s.c., 67 h): -7.1 mM
Average changes of fasting blood glucose after administration ([4]; 0.15 mg/kg s.c., 75 h): -0.7 mM
Average changes of random blood glucose after administration ([4]; 0.15 mg/kg s.c., 91 h): 1.7 mM
Average changes of fasting blood glucose after administration ([4]; 0.15 mg/kg s.c., 99 h): 1.4 mM
Average changes of random blood glucose after administration ([4]; 0.15 mg/kg s.c., 115 h): 4.5 mM
Average changes of fasting blood glucose after administration ([4]; 0.15 mg/kg s.c., 123 h): 4.4 mM
Average changes of random blood glucose after administration ([4]; 0.15 mg/kg s.c., 139 h): 7.8 mM
Average changes of fasting blood glucose after administration ([4]; 0.15 mg/kg s.c., 147 h): 6.7 mM
Average changes of the blood glucose area under the curve after administration ([4]; 0.015 mg/kg s.c., 3 h): -9.0 mmol/L/h
Average changes of the blood glucose area under the curve after administration ([4]; 0.015 mg/kg s.c., 27 h): -5.2 mmol/L/h
Average changes of the blood glucose area under the curve after administration ([4]; 0.015 mg/kg s.c., 51 h): 1.1 mmol/L/h
Average changes of the blood glucose area under the curve after administration ([4]; 0.015 mg/kg s.c., 75 h): 8.2 mmol/L/h
Average changes of the blood glucose area under the curve after administration ([4]; 0.015 mg/kg s.c., 99 h): 7.9 mmol/L/h
Average changes of the blood glucose area under the curve after administration ([4]; 0.015 mg/kg s.c., 123 h): 13.0 mmol/L/h
Average changes of the blood glucose area under the curve after administration ([4]; 0.015 mg/kg s.c., 147 h): 21.9 mmol/L/h
Average changes of the blood glucose area under the curve after administration ([4]; 0.15 mg/kg s.c., 3 h): -10.3 mmol/L/h
Average changes of the blood glucose area under the curve after administration ([4]; 0.15 mg/kg s.c., 27 h): -10.2 mmol/L/h
Average changes of the blood glucose area under the curve after administration ([4]; 0.15 mg/kg s.c., 51 h): -7.1 mmol/L/h
Average changes of the blood glucose area under the curve after administration ([4]; 0.15 mg/kg s.c., 75 h): 1.5 mmol/L/h
Average changes of the blood glucose area under the curve after administration ([4]; 0.15 mg/kg s.c., 99 h): 3.9 mmol/L/h
Average changes of the blood glucose area under the curve after administration ([4]; 0.15 mg/kg s.c., 123 h): 9.9 mmol/L/h
Average changes of the blood glucose area under the curve after administration ([4]; 0.15 mg/kg s.c., 147 h): 16.0 mmol/L/h
